Test results published in patent US12589087B2, “Enantiomer selective action on neurotransmission” (The Board of Trustees of the Leland Stanford Junior …, priority 2021, dated 2026).

Legend:
[1] = test system: mGluR1; experiment: radioligand binding assay, cerebellum membranes; details: mGluR1, rat; 100 μM
Experimental: (§1) Nonspecific AMPA, kainate and NMDA binding assays were performed by Eurofins Discovery (Cerep) using rat cerebral cortex membranes and radiolabeled [^3H]AMPA, [^3H]kainic acid and [^3H]CGP 39653, respectively. All compounds were tested at a single concentration of 100 uM in triplicate. mGluR1, mGluR2, mGluR5 and GABAB binding assays were performed by Eurofins Discovery. mGluR1 assay was performed using rat cerebellum membranes and radiolabeled [^3H]quisqalic acid. mGluR2 assay was performed using recombinant Chem-1 cells and [^3H]LY341495. mGluR5 and GABAB binding assays were performed using recombinant CHO-K1 cells and […], respectively. All compounds were tested at a single concentration of 100 uM in triplicate.
(§2) All receptor assays were performed exactly as described in Example 1. Functional assays of all GABAA, NMDA (GluN2A-GluN2D) and AMPA (GluA2) receptor subunits were performed by SB Drug Discovery as a part of their CNS discovery panel using FLIPR technology. All compounds were tested at 7 concentrations in triplicate and EC50/IC50 was determined where applicable. Functional GABAB assay was performed by Eurofins Discovery (Cerep) using Ca^2+-dependent fluorimetry in RBL cells expressing human GABAB (B1/B2) receptor. All compounds were tested at a single concentration of 100 uM in triplicate. […]

[2] = test system: NMDA nonspecific; experiment: radioligand binding assay, cerebral cortex membranes, [3H]CGP 39653; details: NMDA nonspec, rat; 100 μM
Experimental: as §1, §2

[3] = test system: AMPA nonspecific; experiment: radioligand binding assay, cerebral cortex membranes, [3H]AMPA; details: AMPA nonspec, rat; 100 μM
Experimental: as §1, §2

[4] = biological target: T1, GABAB (B1a/B2) (Homo sapiens, UniProt Q9UBS5); experiment: radioligand binding assay
T1 construct: host or cells: CHO-K1
Experimental: as §1
(§3) All receptor assays were performed exactly as described in Example 1. Functional assays of all GABAA, NMDA (GluN2A-GluN2D) and AMPA (GluA2) receptor subunits were performed by SB Drug Discovery as a part of their CNS discovery panel using FLIPR technology. All compounds were tested at 7 concentrations in triplicate and EC50/IC50 was determined where applicable. Functional GABAB assay was performed by Eurofins Discovery (Cerep) using Ca^2+-dependent fluorimetry in RBL cells expressing human GABAB (B1/B2) receptor. All compounds were tested at a single concentration of 100 uM in triplicate. Nonspecific AMPA, kainate and NMDA binding assays were performed by Eurofins Discovery (Cerep) using rat cerebral cortex membranes and radiolabeled [^3H]AMPA, [^3H]kainic acid and [^3H]CGP 39653, respectively. All compounds were tested at a single concentration of 100 uM in triplicate. mGluR1, mGluR2, mGluR5 and GABAB binding assays were performed by Eurofins Discovery. All compounds were tested at a single concentration of 100 uM in triplicate.

[5] = biological target: T2, GABAB (B1b/B2) (Homo sapiens, UniProt Q9UBS5); experiment: radioligand binding assay
T2 construct: host or cells: CHO-K1
Experimental: as §1, §3

[6] = biological target: T3, GABAB (B1/B2) (Homo sapiens, UniProt Q9UBS5); experiment: functional assay, Ca2+-dependent fluorimetry in RBL cells; assay type: cell-based; details: 100 μM
T3 construct: host or cells: RBL cells
Experimental: Functional assays of all GABAA, NMDA (GluN2A-GluN2D) and AMPA (GluA2) receptor subunits were performed by SB Drug Discovery as a part of their CNS discovery panel using FLIPR technology. Briefly, receptor-expressing HEK 293 cell lines were incubated in a red membrane potential dye in HEPES:HBSS pH 7.4 buffer and the fluorescence (λex: 488, λex: 510-570) was monitored over time as the test compounds and/or reference compounds were added to the solution. In agonist assay, only test compounds were added. In positive allosteric modulator assay, cells were preincubated with test compounds and then low concentration (approximately EC20) of an appropriate agonist was added. In antagonist assay, cells were preincubated with test compounds and then high concentration (approximately EC80) of an appropriate agonist was added. For GABAA assays, GABA was used as the agonist, picrotoxin was used as the reference antagonist and allopregnanolone was used as the reference positive allosteric modulator (PAM). […] All compounds were tested at 7 concentration points in triplicate and EC50/IC50 was determined where applicable. […]
All receptor assays were performed exactly as described in Example 1. […] All compounds were tested at 7 concentrations in triplicate and EC50/IC50 was determined where applicable. […]

[7] = test system: GABAB nonsel; experiment: radioligand binding inhibition assay; details: rat, 100 μM
Experimental: as §1

[8] = test system: mouse cerebral synaptosomes; experiment: Potassium-induced neurotransmitter release assay; assay type: cell-based; details: preloaded with 100 μM for 15 min at 37° C., high-potassium depolarization
Experimental: To each tube, 2.5 μL of a test compound solution (final concentration 100 μM) in Buffer KRP or Buffer KRP alone were added. Samples were incubated for 15 min at 37° C., briefly chilled on ice, and then immediately centrifuged and washed twice with Buffer KRP. The resulting pellets were then resuspended in either Buffer KRP (500 μL) or Buffer K-KRP (500 μL). Samples were immediately centrifuged or incubated for 5, 10 or 15 min at 37° C., then centrifuged and washed with Buffer KRP. Resulting pellets were resuspended in 400 μL of 60% ACN containing 2.5 μM Glu-d5 and 2.5 μM Gln-d5 as internal standards.
Synaptosome uptake and high potassium-induced release assays were performed as described in Example 1. Uptake assays used 250 μL aliquots of the synaptosome suspension transferred to a pre-chilled 0.8 mL 96 well plate. 5 μL of a test compound solution (0.5 mM; final concentration: 10 μM to compare directly to our previous work was added to each well and incubated at 0° C. or 37° C. After 10, 20 or 30 min, samples were chilled on ice and immediately sedimented (2,500 g for 15 min at 4° C.) and washed with Buffer S (0.5 mL, ×2). Resulting pellets were resuspended in 200 μL of 60% ACN containing 5 μM GABA-d6 and stored at −80° C. until analysis. Potassium-induced release assay used 500 μL aliquots of the synaptosome suspension transferred to pre-chilled microcentrifuge tubes. 2.5 μL of a test compound solution (20 mM; final concentration: 100 μM) in Buffer KRP was added to each tube and incubated for 15 min at 37° C., briefly chilled on ice, and then immediately sedimented (8,000 g for 4 min at 4° C.) and washed with Buffer KRP, followed by centrifugation, twice. The resulting pellets were resuspended in 500 μL of Buffer KRP or Buffer K-KRP and incubated for 5, 10 or 15 min at 37° C., sedimented (8,000 g for 4 min at 4° C.), and washed with Buffer KRP. Resulting pellets were resuspended in 400 μL of 60% ACN containing 2.5 μM GABA-d6 as internal standard and stored at −80° C. until analysis.

T1 sequence (Q9UBS5 15-961 limits assumed): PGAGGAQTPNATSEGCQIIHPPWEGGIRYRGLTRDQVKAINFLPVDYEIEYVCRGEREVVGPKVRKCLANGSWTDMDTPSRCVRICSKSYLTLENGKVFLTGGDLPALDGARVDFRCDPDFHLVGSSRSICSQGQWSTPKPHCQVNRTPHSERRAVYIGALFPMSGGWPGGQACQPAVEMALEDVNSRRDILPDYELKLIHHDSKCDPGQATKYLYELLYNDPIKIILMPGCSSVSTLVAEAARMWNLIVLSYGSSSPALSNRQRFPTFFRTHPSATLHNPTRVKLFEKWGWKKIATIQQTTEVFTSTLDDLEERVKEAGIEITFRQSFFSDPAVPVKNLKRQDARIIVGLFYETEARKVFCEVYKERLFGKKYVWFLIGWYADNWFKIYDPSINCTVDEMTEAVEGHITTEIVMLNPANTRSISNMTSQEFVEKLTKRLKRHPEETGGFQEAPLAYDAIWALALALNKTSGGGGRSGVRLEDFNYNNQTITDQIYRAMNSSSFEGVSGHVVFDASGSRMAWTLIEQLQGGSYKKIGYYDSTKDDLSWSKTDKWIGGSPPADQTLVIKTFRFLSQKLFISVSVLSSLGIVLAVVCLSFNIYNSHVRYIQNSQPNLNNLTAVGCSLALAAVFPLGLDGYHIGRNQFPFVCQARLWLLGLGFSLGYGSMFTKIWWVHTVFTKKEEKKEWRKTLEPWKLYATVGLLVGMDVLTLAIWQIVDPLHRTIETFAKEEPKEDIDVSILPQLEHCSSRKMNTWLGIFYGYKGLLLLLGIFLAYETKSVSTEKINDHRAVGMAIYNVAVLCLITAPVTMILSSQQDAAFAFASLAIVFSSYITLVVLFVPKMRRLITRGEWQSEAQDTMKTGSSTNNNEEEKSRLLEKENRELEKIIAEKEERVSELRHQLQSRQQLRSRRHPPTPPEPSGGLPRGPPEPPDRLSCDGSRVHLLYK
T1 sequence (O75899 42-941 partner): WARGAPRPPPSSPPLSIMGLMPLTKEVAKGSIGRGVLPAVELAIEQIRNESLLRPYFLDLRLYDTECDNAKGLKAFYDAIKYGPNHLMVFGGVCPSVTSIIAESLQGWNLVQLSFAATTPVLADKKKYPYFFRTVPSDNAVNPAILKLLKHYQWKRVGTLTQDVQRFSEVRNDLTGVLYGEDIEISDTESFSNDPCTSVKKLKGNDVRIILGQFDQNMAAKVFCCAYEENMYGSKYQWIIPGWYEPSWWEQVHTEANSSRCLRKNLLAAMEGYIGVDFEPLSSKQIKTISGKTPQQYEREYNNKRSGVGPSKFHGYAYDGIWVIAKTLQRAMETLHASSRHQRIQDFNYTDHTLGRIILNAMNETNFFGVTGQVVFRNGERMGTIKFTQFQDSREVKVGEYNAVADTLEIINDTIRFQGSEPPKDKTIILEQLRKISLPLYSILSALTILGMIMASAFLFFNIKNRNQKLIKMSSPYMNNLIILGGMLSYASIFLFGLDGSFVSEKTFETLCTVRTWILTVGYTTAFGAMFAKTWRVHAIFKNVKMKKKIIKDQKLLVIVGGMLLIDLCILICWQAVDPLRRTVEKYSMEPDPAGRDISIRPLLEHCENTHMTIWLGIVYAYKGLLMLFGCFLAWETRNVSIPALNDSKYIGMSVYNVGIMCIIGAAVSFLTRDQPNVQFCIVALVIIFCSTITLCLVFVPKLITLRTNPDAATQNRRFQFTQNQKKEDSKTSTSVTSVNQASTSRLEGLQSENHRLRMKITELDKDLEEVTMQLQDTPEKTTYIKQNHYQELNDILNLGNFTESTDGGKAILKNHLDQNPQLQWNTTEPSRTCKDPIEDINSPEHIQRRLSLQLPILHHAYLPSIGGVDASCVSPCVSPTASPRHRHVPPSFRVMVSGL
T3 sequence (Q9UBS5 20-961): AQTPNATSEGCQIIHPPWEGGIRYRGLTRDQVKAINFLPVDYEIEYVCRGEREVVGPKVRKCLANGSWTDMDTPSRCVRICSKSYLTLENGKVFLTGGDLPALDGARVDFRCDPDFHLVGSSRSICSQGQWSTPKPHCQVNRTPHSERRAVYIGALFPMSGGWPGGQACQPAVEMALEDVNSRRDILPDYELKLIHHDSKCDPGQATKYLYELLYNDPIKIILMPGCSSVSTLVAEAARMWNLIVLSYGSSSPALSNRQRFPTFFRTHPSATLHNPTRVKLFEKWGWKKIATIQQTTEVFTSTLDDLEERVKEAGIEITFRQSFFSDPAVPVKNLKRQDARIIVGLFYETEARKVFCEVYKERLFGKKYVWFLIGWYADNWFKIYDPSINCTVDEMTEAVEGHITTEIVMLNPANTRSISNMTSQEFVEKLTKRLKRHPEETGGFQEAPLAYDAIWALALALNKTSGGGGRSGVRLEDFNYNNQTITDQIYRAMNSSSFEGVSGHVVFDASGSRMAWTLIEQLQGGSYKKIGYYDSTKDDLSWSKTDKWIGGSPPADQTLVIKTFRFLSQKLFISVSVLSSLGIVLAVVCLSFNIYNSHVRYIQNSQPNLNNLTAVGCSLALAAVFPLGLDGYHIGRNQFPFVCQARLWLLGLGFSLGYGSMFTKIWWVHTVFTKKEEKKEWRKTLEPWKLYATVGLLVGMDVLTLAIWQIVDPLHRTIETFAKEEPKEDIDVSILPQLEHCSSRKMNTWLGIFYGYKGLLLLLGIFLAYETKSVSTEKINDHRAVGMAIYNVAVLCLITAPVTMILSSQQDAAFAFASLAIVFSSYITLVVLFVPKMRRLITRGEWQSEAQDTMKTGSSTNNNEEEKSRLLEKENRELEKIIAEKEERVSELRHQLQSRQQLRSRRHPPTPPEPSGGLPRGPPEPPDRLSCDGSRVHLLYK
T3 sequence (O75899 42-941 partner): as the sequence (O75899 42-941 partner) above
T2 sequence (Q9UBS5 1-844 isoform Q9UBS5-2): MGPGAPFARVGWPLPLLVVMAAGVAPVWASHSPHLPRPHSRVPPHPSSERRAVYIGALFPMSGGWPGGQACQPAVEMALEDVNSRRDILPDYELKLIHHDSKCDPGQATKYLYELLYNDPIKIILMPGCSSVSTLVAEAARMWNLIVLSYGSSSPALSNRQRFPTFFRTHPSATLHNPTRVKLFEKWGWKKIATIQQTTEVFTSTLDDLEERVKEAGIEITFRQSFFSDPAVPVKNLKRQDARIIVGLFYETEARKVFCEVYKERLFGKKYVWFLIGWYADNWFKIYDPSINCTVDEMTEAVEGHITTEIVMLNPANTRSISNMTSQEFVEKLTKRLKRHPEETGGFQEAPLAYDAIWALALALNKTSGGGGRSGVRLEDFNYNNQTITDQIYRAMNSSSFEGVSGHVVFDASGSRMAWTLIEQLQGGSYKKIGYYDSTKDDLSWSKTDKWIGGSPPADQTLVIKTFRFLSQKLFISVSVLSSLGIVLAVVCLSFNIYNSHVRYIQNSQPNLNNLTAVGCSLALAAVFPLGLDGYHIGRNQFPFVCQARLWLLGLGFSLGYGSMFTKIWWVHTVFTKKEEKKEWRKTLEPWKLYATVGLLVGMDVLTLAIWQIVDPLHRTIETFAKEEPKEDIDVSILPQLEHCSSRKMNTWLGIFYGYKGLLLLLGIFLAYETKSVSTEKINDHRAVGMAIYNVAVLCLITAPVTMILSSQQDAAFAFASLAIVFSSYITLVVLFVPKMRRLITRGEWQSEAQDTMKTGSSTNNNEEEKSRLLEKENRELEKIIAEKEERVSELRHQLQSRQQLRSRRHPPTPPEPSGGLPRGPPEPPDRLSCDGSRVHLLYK
T2 sequence (O75899 42-941 partner): as the sequence (O75899 42-941 partner) above

C[C@@](N)(CCC(=O)O)C(=O)O [(R)-2MeGlu, (R)-2-methylglutamic acid]
% of radioligand binding inhibition [1]: −3% | % of radioligand binding inhibition [2]: 8% | % of radioligand binding inhibition [3]: 15% | inhibition at 100 µM [4]: 18% | inhibition at 100 µM [5]: 13% | % of agonist response [6]: 0% | % of radioligand binding inhibition [7]: 5% | potassium-induced release from synaptosomes [8]: not significantly altered by depolarization

C[C@](N)(CCC(=O)O)C(=O)O [(S)-2MeGlu, (S)-2-methylglutamic acid]
% of radioligand binding inhibition [1]: 6% | % of radioligand binding inhibition [2]: 3% | % of radioligand binding inhibition [3]: 12% | inhibition at 100 µM [4]: 6% | inhibition at 100 µM [5]: 14% | % of agonist response [6]: 0% | % of radioligand binding inhibition [7]: 5% | potassium-induced release from synaptosomes [8]: released upon depolarization
